According to ChEMBL document CHEMBL4177534, “Discovery and evaluation of 1H-pyrrolo[2,3-b]pyridine based selective and reversible small molecule BTK inhibitors for the treatment of rheumatoid arthritis” (Bioorg Med Chem Lett, 2017):

Assays:
[1] = target: Interleukin-1 receptor-associated kinase 4 (Homo sapiens) (UniProt Q9NWZ3); assay: Inhibition of recombinant human full length N-terminal GST-tagged IRAK4 expressed in baculovirus infected Sf9 cells assessed as change in enzyme activity at 1 uM in presence of 2 uM ATP relative to control; parameters: scale not given: the % may be the effect or the level left
[2] = target: Cytoplasmic tyrosine-protein kinase BMX (Homo sapiens) (UniProt P51813); assay: Inhibition of recombinant full length N-terminal GST-tagged BMX (unknown origin) expressed in baculovirus infected Sf9 cells assessed as change in enzyme activity at 1 uM in presence of 2 uM ATP relative to control; parameters: scale not given: the % may be the effect or the level left
Chain of Cytoplasmic tyrosine-protein kinase BMX (Homo sapiens) (P51813 whole entry): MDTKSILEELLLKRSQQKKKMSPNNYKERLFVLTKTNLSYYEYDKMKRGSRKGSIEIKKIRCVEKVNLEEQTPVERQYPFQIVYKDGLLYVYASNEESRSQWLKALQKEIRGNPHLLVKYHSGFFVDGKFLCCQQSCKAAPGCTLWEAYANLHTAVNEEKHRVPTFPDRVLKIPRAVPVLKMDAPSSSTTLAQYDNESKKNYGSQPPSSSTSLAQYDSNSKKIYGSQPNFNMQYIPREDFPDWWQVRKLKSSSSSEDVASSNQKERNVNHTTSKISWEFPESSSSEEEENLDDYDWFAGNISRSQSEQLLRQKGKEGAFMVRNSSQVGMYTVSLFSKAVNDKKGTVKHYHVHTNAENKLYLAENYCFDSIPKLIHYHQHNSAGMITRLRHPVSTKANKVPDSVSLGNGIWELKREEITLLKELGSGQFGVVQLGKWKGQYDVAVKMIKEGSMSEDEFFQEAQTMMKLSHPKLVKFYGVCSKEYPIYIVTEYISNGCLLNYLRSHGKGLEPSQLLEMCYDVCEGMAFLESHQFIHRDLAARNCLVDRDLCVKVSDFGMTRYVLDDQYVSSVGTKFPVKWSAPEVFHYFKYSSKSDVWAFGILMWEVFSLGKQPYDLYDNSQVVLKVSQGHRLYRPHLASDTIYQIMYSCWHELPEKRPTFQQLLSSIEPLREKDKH

[3] = target: Vascular endothelial growth factor receptor 3 (Homo sapiens) (UniProt P35916); assay: Inhibition of recombinant human N-terminal GST-tagged FLT4 (800 to end residues) expressed in baculovirus infected Sf9 cells assessed as change in enzyme activity at 1 uM in presence of 2 uM ATP relative to control; parameters: scale not given: the % may be the effect or the level left
Chain of Vascular endothelial growth factor receptor 3 (Homo sapiens) (P35916 whole entry, the tested form may be a part): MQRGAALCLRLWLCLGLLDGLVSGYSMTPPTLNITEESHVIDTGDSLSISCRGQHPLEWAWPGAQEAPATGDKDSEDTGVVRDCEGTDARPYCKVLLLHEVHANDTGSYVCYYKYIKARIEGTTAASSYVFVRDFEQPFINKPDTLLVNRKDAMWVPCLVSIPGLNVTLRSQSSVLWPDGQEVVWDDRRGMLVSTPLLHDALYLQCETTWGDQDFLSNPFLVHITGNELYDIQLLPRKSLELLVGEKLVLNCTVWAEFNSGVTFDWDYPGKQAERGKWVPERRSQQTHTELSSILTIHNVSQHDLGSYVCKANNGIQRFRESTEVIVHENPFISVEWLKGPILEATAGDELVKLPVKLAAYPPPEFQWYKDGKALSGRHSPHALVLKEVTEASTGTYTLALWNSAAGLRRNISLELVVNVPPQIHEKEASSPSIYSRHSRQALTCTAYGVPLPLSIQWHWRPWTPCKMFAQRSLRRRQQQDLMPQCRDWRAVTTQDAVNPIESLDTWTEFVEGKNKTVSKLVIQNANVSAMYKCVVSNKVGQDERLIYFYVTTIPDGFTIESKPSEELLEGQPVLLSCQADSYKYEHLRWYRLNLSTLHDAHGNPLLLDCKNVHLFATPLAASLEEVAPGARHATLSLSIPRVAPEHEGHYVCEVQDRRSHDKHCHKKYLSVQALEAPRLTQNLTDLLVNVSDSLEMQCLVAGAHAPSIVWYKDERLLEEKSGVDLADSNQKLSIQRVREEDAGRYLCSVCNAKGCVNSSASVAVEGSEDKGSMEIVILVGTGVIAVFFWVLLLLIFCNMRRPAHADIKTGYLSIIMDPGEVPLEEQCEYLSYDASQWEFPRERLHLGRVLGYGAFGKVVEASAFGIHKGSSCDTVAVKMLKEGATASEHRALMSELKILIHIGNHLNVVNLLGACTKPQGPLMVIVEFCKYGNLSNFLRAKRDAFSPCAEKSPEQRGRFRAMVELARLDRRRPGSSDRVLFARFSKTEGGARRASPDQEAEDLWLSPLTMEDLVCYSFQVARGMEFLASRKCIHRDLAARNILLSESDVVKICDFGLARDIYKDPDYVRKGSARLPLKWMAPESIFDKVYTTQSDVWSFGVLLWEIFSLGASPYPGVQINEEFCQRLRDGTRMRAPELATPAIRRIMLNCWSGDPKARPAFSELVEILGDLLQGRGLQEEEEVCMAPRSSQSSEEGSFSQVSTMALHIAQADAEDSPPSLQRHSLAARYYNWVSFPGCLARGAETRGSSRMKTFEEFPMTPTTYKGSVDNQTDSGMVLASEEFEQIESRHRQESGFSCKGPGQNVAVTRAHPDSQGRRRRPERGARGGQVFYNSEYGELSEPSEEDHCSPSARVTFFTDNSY

[4] = target: Tyrosine-protein kinase JAK3 (Homo sapiens, UniProt P52333); assay: Inhibition of recombinant human JAK3 (781 to 1124 residues) preincubated for 10 mins followed by poly-[Glu-Tyr(4:1) substrate addition after 60 mins in presence of ATP by Kinase-Glo assay
[5] = target: Tyrosine-protein kinase BTK (Mus musculus, UniProt P35991); assay: Inhibition of mouse BTK assessed as decrease in anti-mouse IgD antibody stimulated BCR mediated CD69 upregulation in whole blood preincubated for 1 hr followed by antibody challenge after 4 hrs by flow cytometry
[6] = Metabolic stability in mouse liver microsomes assessed as metabolism rate; type: ADME, microsome
[7] = Half life in mouse at 3 mg/kg, iv; type: ADME, organism-based; conditions: in vivo
[8] = Oral bioavailability in mouse at 10 mg/kg; type: ADME, organism-based; conditions: in vivo
[9] = Metabolic stability in human liver microsomes assessed as metabolism rate; type: ADME, microsome
[10] = Metabolic stability in rat liver microsomes assessed as metabolism rate; type: ADME, microsome
[11] = target: Tyrosine-protein kinase Lck (Homo sapiens) (UniProt P06239); assay: Inhibition of recombinant human full length N-terminal GST-tagged LCK expressed in baculovirus infected Sf9 cells assessed as change in enzyme activity at 1 uM in presence of 1 uM ATP relative to control; parameters: scale not given: the % may be the effect or the level left
[12] = target: Ribosomal protein S6 kinase (Homo sapiens) (UniProt P51812+Q9UBS0+O75676+Q15349+O75582+P23443+Q9UK32+Q15418); assay: Inhibition of recombinant human full length N-terminal GST-tagged p70S6K expressed in baculovirus infected Sf9 cells assessed as change in enzyme activity at 1 uM in presence of 2 uM ATP relative to control; parameters: scale not given: the % may be the effect or the level left
[13] = target: Tyrosine-protein kinase ITK/TSK (Homo sapiens, UniProt Q08881); assay: Inhibition of recombinant human full length ITK preincubated for 10 mins followed by Tk-biotin peptide substrate addition after 60 mins by TR-FRET assay
Chain of Tyrosine-protein kinase ITK/TSK (Q08881 whole entry): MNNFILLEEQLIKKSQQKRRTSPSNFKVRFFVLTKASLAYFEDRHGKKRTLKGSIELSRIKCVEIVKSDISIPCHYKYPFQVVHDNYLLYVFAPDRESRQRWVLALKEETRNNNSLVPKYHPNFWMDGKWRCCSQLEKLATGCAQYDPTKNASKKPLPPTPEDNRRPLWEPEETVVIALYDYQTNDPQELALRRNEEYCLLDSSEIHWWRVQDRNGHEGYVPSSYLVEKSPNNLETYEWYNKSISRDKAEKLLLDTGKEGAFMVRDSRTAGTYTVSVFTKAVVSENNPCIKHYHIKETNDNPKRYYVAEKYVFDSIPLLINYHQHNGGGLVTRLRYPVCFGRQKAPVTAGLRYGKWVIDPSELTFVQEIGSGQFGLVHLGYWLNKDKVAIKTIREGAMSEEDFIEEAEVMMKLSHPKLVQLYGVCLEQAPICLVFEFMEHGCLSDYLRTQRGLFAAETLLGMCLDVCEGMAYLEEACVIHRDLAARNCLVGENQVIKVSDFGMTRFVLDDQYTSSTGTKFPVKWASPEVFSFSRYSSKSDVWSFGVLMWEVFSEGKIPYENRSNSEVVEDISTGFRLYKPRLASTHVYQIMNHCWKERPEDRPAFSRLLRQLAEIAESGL

[14] = target: Tyrosine-protein kinase BTK (Homo sapiens, UniProt Q06187); assay: Inhibition of human BTK assessed as decrease in […] antibody stimulated BCR mediated CD69 upregulation in whole blood preincubated for 1 hr followed by antibody challenge after 4 hrs by flow cytometry
[15] = target: cAMP-dependent protein kinase catalytic subunit alpha (Homo sapiens) (UniProt P17612); assay: Inhibition of recombinant human full length N-terminal GST-tagged PKACalpha expressed in baculovirus infected Sf9 cells assessed as change in enzyme activity at 1 uM in presence of 1 uM ATP relative to control; parameters: scale not given: the % may be the effect or the level left
[16] = target: Tyrosine-protein kinase TXK (Homo sapiens) (UniProt P42681); assay: Inhibition of recombinant N-terminal GST-tagged TXK (unknown origin) expressed in baculovirus infected Sf9 cells assessed as change in enzyme activity at 1 uM in presence of 2 uM ATP relative to control; parameters: scale not given: the % may be the effect or the level left
[17] = target: Fibroblast growth factor receptor 4 (Homo sapiens) (UniProt P22455); assay: Inhibition of recombinant human N-terminal GST-tagged FGFR4 (460 to end) residues expressed in baculovirus infected Sf9 cells assessed as change in enzyme activity at 1 uM in presence of 1 uM ATP relative to control; parameters: scale not given: the % may be the effect or the level left
Chain of Fibroblast growth factor receptor 4 (Homo sapiens) (P22455 22-802 limits assumed): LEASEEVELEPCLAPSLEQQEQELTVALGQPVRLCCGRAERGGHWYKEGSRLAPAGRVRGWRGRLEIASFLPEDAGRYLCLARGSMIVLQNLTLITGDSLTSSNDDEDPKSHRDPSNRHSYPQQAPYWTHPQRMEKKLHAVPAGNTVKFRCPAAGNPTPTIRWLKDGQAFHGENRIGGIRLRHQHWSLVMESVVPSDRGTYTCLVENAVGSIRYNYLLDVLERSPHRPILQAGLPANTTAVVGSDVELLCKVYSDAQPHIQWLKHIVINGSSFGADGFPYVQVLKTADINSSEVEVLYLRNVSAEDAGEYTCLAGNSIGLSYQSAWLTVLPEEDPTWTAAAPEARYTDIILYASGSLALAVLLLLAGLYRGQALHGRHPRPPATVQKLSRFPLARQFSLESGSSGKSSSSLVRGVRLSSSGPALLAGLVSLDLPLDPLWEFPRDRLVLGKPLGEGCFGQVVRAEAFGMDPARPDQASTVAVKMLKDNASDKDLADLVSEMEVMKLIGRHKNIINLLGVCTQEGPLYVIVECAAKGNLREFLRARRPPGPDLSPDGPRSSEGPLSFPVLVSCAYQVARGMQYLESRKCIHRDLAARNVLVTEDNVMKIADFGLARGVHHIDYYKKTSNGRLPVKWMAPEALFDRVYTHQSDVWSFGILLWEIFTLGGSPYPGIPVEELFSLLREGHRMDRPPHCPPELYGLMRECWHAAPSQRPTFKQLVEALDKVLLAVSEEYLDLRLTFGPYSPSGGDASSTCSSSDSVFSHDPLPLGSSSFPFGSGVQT

[18] = target: Mitogen-activated protein kinase 14 (Homo sapiens) (UniProt Q16539); assay: Inhibition of recombinant human full length N-terminal GST-tagged p38alpha expressed in baculovirus infected Sf9 cells assessed as change in enzyme activity at 1 uM in presence of 1 uM ATP relative to control; parameters: scale not given: the % may be the effect or the level left
[19] = target: Dual specificity mitogen-activated protein kinase kinase 1 (Homo sapiens) (UniProt Q02750); assay: Inhibition of recombinant full length N-terminal GST-tagged MEK1 (unknown origin) assessed as change in enzyme activity at 1 uM in presence of 1 uM ATP relative to control; parameters: scale not given: the % may be the effect or the level left
Chain of Dual specificity mitogen-activated protein kinase kinase 1 (Homo sapiens) (Q02750 whole entry): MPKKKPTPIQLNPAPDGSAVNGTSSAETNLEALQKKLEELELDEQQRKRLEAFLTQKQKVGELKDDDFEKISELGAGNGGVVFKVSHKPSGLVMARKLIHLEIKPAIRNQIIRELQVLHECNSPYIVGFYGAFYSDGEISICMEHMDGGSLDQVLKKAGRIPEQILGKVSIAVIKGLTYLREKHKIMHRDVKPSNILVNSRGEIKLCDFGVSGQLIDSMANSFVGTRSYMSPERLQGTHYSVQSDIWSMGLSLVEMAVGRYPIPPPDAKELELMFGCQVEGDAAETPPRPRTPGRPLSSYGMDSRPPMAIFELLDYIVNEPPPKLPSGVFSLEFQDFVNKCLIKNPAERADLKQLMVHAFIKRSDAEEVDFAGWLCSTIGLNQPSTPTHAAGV

[20] = target: Serine/threonine-protein kinase VRK1 (Homo sapiens) (UniProt Q99986); assay: Inhibition of recombinant human full length N-terminal GST-tagged VRK1 expressed in baculovirus infected Sf9 cells assessed as change in enzyme activity at 1 uM in presence of 2 uM ATP relative to control; parameters: scale not given: the % may be the effect or the level left
[21] = target: Tyrosine-protein kinase Blk (Homo sapiens) (UniProt P51451); assay: Inhibition of recombinant human full length N-terminal GST-tagged BLK expressed in baculovirus infected Sf9 cells assessed as change in enzyme activity at 1 uM in presence of 1 uM ATP relative to control; parameters: scale not given: the % may be the effect or the level left
[22] = tested on: Mus musculus; assay: Dose normalized AUC (0 to 24 hrs) in mouse at 10 mg/kg, po; type: ADME, organism-based; conditions: in vivo
[23] = target: Receptor-type tyrosine-protein kinase FLT3 (Homo sapiens) (UniProt P36888); assay: Inhibition of recombinant human N-terminal GST-tagged FLT3 (571 to 993 residues) expressed in baculovirus infected Sf9 cells assessed as change in enzyme activity at 1 uM in presence of 2 uM ATP relative to control; parameters: scale not given: the % may be the effect or the level left
Chain of Receptor-type tyrosine-protein kinase FLT3 (Homo sapiens) (P36888 whole entry, the tested form may be a part): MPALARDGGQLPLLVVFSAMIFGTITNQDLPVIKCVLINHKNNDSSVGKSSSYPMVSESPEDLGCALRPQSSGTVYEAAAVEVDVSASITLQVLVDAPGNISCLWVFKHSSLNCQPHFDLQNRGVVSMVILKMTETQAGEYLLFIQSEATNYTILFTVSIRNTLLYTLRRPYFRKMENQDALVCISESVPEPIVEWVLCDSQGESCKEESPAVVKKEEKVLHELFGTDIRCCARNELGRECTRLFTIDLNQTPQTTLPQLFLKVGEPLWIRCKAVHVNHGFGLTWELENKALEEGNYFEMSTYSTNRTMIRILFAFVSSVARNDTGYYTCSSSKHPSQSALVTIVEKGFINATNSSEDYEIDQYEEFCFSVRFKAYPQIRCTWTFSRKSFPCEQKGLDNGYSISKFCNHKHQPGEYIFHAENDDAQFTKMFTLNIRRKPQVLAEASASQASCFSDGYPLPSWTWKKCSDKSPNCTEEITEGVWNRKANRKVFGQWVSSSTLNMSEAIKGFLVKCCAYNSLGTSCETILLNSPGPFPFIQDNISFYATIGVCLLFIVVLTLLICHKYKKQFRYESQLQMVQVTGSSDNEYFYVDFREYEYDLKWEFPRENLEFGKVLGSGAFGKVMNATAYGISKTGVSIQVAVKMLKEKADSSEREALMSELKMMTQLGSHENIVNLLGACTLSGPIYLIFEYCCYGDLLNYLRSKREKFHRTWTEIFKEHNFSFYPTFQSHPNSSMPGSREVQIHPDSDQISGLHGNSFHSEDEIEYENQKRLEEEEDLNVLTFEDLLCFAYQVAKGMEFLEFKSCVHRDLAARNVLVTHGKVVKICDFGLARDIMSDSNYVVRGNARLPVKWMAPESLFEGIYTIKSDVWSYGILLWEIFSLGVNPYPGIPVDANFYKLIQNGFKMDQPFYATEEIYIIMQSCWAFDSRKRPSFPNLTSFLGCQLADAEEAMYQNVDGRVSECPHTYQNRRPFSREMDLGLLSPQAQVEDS

[24] = target: Tyrosine-protein kinase ZAP-70 (Homo sapiens) (UniProt P43403); assay: Inhibition of recombinant human full length N-terminal GST-tagged ZAP70 expressed in baculovirus infected Sf9 cells assessed as change in enzyme activity at 1 uM in presence of 2 uM ATP relative to control; parameters: scale not given: the % may be the effect or the level left
[25] = target: Mitogen-activated protein kinase 8 (Mus musculus) (UniProt Q91Y86); assay: Inhibition of recombinant mouse N-terminal GST-tagged JNK1 expressed in baculovirus infected Sf9 cells assessed as change in enzyme activity at 1 uM in presence of 1 uM ATP relative to control; parameters: scale not given: the % may be the effect or the level left
[26] = target: Serine/threonine-protein kinase Nek11 (Homo sapiens) (UniProt Q8NG66); assay: Inhibition of recombinant human full length N-terminal GST-tagged NEK11 expressed in baculovirus infected Sf9 cells assessed as change in enzyme activity at 1 uM in presence of 2 uM ATP relative to control; parameters: scale not given: the % may be the effect or the level left
[27] = tested on: Mus musculus; assay: Antiarthritic activity in DBA/1J mouse type-2 collagen-induced arthritis model assessed as reduction in clinical score immunized with type-2 collagen on day 1 and day 21 followed by LPS challenge on day 28 subsequent compound administration po bid by hematoxylin and eosin staining based assay; type: functional, organism-based

Row | Activity [1] [%] | Activity [2] [%] | Activity [3] [%] | IC50 [4] [nM] | IC50 [5] [nM] | Drug metabolism [6] [nmol/min/mg] | half-life [7] [h] | bioavailability [8] [%] | Drug metabolism [9] [nmol/min/mg] | Drug metabolism [10] | Activity [11] [%] | Activity [12] [%] | IC50 [13] [nM] | IC50 [14] [nM] | Activity [15] [%] | Activity [16] [%] | Activity [17] [%] | Activity [18] [%] | Activity [19] [%] | Activity [20] [%] | SMILES | further results
1 | 2 | -10 | -3 | > 10000 | 364 | < 0.04 | 1.1 | 49 | < 0.04 | < 0.04 nmol/min/mg | 1 | -28 | > 10000 | 261 | 0 | 1 | 1 | 4 | -20 | -8 | O=C1c2c(F)cc(C3CC3)cc2OCCN1c1cccc(-c2ccnc3[nH]c(C4=CCN(C5COC5)CC4)cc23)c1CO | Activity [21]: 3%; AUC/dose [22]: 25.8 µM·h; Activity [23]: -5%; Activity [24]: -1%; Activity [25]: -4%; Activity [26]: -6%; Activity [27]: Dose-dependent effect
2 | -3 | -49 | -3 | > 10000 | 159 | < 0.04 | 5.6 | 51 | < 0.04 | <= 0.04 nmol/min/mg | -4 | 2 | > 10000 | 83.5 | -2 | -2 | 0 | -7 | -14 | 1 | CCN1CCN(Cc2ccc(-c3cc4c(-c5cccc(N6CCOc7cc(C8CC8)cc(F)c7C6=O)c5CO)ccnc4[nH]3)nc2)CC1 | Activity [21]: 1%; AUC/dose [22]: 27 µM·h; Activity [23]: -5%; Activity [24]: 1%; Activity [25]: 1%; Activity [26]: -5%; Activity [27]: Dose-dependent effect
